Test [1] concerns the target T1, HCV polymerase (NS5B) type 1b (Hepatitis C virus genotype 1b, UniProt P26663).
T1 construct: a region encoding NS5B (J Virol 1991 March, 65(3), 1105-13, 544 amino acids after deletion of 47 amino acids on the C-terminal); 6xHis (C); made in house; host or cells: Escherichia coli
Briefly: Assay of enzyme (HCV polymerase) inhibitory activity, type 1b enzyme. Type of test: biochemical, HCV BK strain (type 1b). Put shortly:
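IC50 derived from [3H]UTP incorporation into TCA-insoluble RNA, compared with and without test compound. Reaction (25 °C, 60 min, Tris pH 7.5, 5 mM MgCl2): E. coli-expressed 1b NS5B Δ47 with His tag at 0.5 μg/ml, 5 μg/ml run-off substrate RNA, ATP/GTP/CTP 50 μM, UTP 2 μM.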

Test [2] addresses T2, HCV polymerase (NS5B) type 1a (Hepatitis C virus genotype 1a, UniProt P26664).
T2 construct: made in house; host or cells: Escherichia coli (by the 'similar method' of the 1b enzyme)
Briefly: Assay of enzyme (HCV polymerase) inhibitory activity, type 1a enzyme. Type of test: biochemical, HCV type 1a (cloned from the blood of patients). The gist of the method: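 Reactions ran 60 min at 25° C in 20 mM Tris-HCl pH 7.5, 5 mM MgCl2, 50 mM NaCl, holding genotype 1a NS5B (1.5 μg/ml, Δ47 C-terminus, 6His), substrate RNA 5 μg/ml, UTP 2 μM with tritiated UTP and other NTPs 50 μM. IC50 derived from incorporated radiolabel in filter-trapped RNA relative to uninhibited reaction.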

The mark [3] stands for this setting: HCV polymerase inhibitory activity (IC50), 1b, type 1b enzyme 0.5 μg/ml, 25° C., 60 min.
Where [4] appears, read: HCV polymerase inhibitory activity (IC50), 1a, type 1a enzyme 1.5 μg/ml, 25° C., 60 min.
Where [5] appears, read: HCV polymerase inhibitory activity IC50, 1b, type 1b enzyme.
Where [6] appears, read: HCV polymerase inhibitory activity IC50, 1a, type 1a enzyme.

A word on the IC50: it is the concentration that gives 50% inhibition.

As for `COCc1ccc(S(=O)(=O)N2CCN(C(C)=O)CC2C(=O)NCc2ccc(C(F)(F)F)cc2)cc1` (stereo not drawn) [Example 143, 4-acetyl-1-(4-methoxymethyl-benzenesulfonyl)-piperazine-2-carboxylic acid 4-trifluoromethyl-benzylamide], the IC50 in test [1] (setting [3]) and in test [2] (setting [4]) was greater than 1000 nM each time.
`Cc1cc(=O)nc2sc(N3CCN(S(=O)(=O)c4ccc(C(F)(F)F)cc4)[C@@H](C(=O)NCc4ccc(OC(F)F)cc4)C3)nn12` [Example 1032, (R)-4-(5-methyl-7-oxo-7H-[1,3,4]thiadiazolo[3,2-a]pyrimidin-2-yl)-1-(4-trifluoromethyl-benzenesulfonyl)-piperazine-2-carboxylic acid 4-difluoromethoxy-benzylamide]: the IC50 in test [1] (setting [5]) and in test [2] (setting [6]) was less than 100 nM each time.
With `CCCc1ccc(S(=O)(=O)N2CCN(c3nc(C)c(C(=O)O)s3)C[C@@H]2C(=O)NCc2ccc(C(C)C)cc2)cc1` [Example 299, 2-[(R)-3-(4-isopropyl-benzylcarbamoyl)-4-(4-propyl-benzenesulfonyl)-piperazin-1-yl]-4-methyl-thiazole-5-carboxylic acid], the IC50 in test [1] (setting [3]) and in test [2] (setting [4]) was less than 100 nM throughout.
In the case of `Nc1nnnc2nc(N3CCN(S(=O)(=O)c4ccc(OC(F)(F)F)cc4)[C@@H](C(=O)NCc4ccc(OC(F)(F)F)cc4)C3)sc12` [Example 1034, (R)-4-(4-amino-thiazolo[4,5-d][1,2,3]triazin-6-yl)-1-(4-trifluoromethoxy-benzenesulfonyl)-piperazine-2-carboxylic acid 4-trifluoromethoxy-benzylamide], the IC50 in test [1] (setting [5]) and in test [2] (setting [6]) was less than 100 nM throughout.
As for `O=C(NCc1ccc(OC(F)(F)F)c(F)c1)[C@H]1CN(c2nc3nc(C4CC4)ncc3s2)CCN1S(=O)(=O)c1ccc(OC(F)(F)F)cc1` [Example 1102, (R)-4-(5-cyclopropyl-thiazolo[4,5-d]pyrimidin-2-yl)-1-(4-trifluoromethoxy-benzenesulfonyl)-piperazine-2-carboxylic acid 3-fluoro-4-trifluoromethoxy-benzylamide], the IC50 in test [1] (setting [5]) and in test [2] (setting [6]) was less than 100 nM each time.
`CCCc1ccc(CNC(=O)[C@H]2CN(C(=O)Nc3ccncc3)CCN2S(=O)(=O)c2ccc(OC(F)(F)F)cc2)cc1` [Example 436, (R)-4-(4-trifluoromethoxy-benzenesulfonyl)-piperazine-1,3-dicarboxylic acid 3-(4-propyl-benzylamide) 1-pyridin-4-ylamide]: the IC50 in test [1] (setting [3]) and in test [2] (setting [4]) was less than 100 nM each time.
In the case of `O=C(NCc1ccc(OC(F)(F)F)cc1)[C@H]1CN(c2nc3cn[nH]c(=O)c3s2)CCN1S(=O)(=O)c1ccc(Br)cc1` [Example 881, (R)-1-(4-bromo-benzenesulfonyl)-4-(7-oxo-6,7-dihydro-thiazolo[4,5-d]pyridazin-2-yl)-piperazine-2-carboxylic acid 4-trifluoromethoxy-benzylamide], the IC50 in test [1] (setting [5]) and in test [2] (setting [6]) was less than 100 nM throughout.
As to `Nc1ncc2sc(N3CCN(S(=O)(=O)c4ccc(OC(F)(F)F)cc4)[C@@H](C(=O)NCc4ccc(OC(F)(F)F)cc4)C3)nc2n1` [Example 943, (R)-4-(5-amino-thiazolo[4,5-d]pyrimidin-2-yl)-1-(4-trifluoromethoxy-benzenesulfonyl)-piperazine-2-carboxylic acid 4-trifluoromethoxy-benzylamide], the IC50 in test [1] (setting [5]) and in test [2] (setting [6]) was less than 100 nM throughout.
With `CCC(F)(F)c1ccc(CNC(=O)[C@H]2CN(c3cnc4cncnc4n3)CCN2S(=O)(=O)c2ccc(-c3cccc(OCC(=O)O)c3)cc2)cc1` [Example 732, (4′-{(R)-2-[4-(1,1-difluoro-propyl)-benzylcarbamoyl]-4-pteridin-7-yl-piperazine-1-sulfonyl}-biphenyl-3-yloxy)-acetic acid], the IC50 in test [1] (setting [5]) and in test [2] (setting [6]) was less than 100 nM each time.
For `CC(C)(O)c1nc(N)c2sc(N3CCN(S(=O)(=O)c4ccc(OC(F)(F)F)cc4)[C@@H](C(=O)NCc4ccc(OC(F)(F)F)cc4)C3)nc2n1` [Example 1091, (R)-4-[7-amino-5-(1-hydroxy-1-methyl-ethyl)-thiazolo[4,5-d]pyrimidin-2-yl]-1-(4-trifluoromethoxy-benzenesulfonyl)-piperazine-2-carboxylic acid 4-trifluoromethoxy-benzylamide], the IC50 in test [1] (setting [5]) and in test [2] (setting [6]) was less than 100 nM in each case.
On to `CCC(F)(F)c1ccc(CNC(=O)[C@H]2CN(c3cnc4cnccc4n3)CCN2S(=O)(=O)c2ccc(N3CCOCC3)cc2)cc1` [Example 746, (R)-1-(4-morpholin-4-yl-benzenesulfonyl)-4-pyrido[3,4-b]pyrazin-2-yl-piperazine-2-carboxylic acid 4-(1,1-difluoro-propyl)-benzylamide], for which the IC50 in test [1] (setting [5]) and in test [2] (setting [6]) was less than 100 nM throughout.
Turning to `COc1ncc2sc(N3CCN(S(=O)(=O)c4ccc(OC(F)(F)F)cc4)[C@@H](C(=O)NCc4ccc(OC(F)(F)F)cc4)C3)nc2n1` [Example 929, (R)-4-(5-methoxy-thiazolo[4,5-d]pyrimidin-2-yl)-1-(4-trifluoromethoxy-benzenesulfonyl)-piperazine-2-carboxylic acid 4-trifluoromethoxy-benzylamide], the IC50 in test [1] (setting [5]) and in test [2] (setting [6]) was less than 100 nM throughout.
In the case of `CCC(C)(C)c1ccc(CNC(=O)[C@H]2CN(c3nc4cn[nH]c(=O)c4s3)CCN2S(=O)(=O)c2ccc(OC(F)(F)F)cc2)cc1` [Example 840, (R)-4-(7-oxo-6,7-dihydro-thiazolo[4,5-d]pyridazin-2-yl)-1-(4-trifluoromethoxy-benzenesulfonyl)-piperazine-2-carboxylic acid 4-(1,1-dimethyl-propyl)-benzylamide], the IC50 in test [1] (setting [5]) and in test [2] (setting [6]) was less than 100 nM each time.
`CCC(F)(F)c1ccc(CNC(=O)[C@H]2CN(C(=O)Nc3csc(C)n3)CCN2S(=O)(=O)c2ccc(OC(F)(F)F)cc2)cc1` [Example 567, (R)-4-(4-trifluoromethoxy-benzenesulfonyl)-piperazine-1,3-dicarboxylic acid 3-[4-(1,1-difluoro-propyl)-benzylamide] 1-[(2-methyl-thiazol-4-yl)-amide]]: the IC50 in test [1] (setting [3]) is less than 100 nM; in test [2] (setting [4]), 100 to 1000 nM.
The corresponding values for `CC(C)c1ccc(CNC(=O)[C@H]2CN(C(=O)CCCCCC(=O)O)CCN2S(=O)(=O)c2ccc(C(F)(F)F)cc2)cc1` [Example 317, 7-[(R)-3-(4-isopropyl-benzylcarbamoyl)-4-(4-trifluoromethyl-benzenesulfonyl)-piperazin-1-yl]-7-oxo-heptanoic acid] are 100 to 1000 nM and 100 to 1000 nM.
The corresponding values for `CCC(F)(F)c1ccc(CNC(=O)[C@H]2CN(C(=O)Cc3ccncn3)CCN2S(=O)(=O)c2ccc(OC(F)(F)F)cc2)cc1` [Example 590, (R)-4-(2-pyrimidin-4-yl-acetyl)-1-(4-trifluoromethoxy-benzenesulfonyl)-piperazine-2-carboxylic acid 4-(1,1-difluoro-propyl)-benzylamide] are less than 100 nM and less than 100 nM.
Take `CCC(F)(F)c1ccc(CNC(=O)[C@H]2CN(C(=O)N3CCC(C(=O)O)CC3)CCN2S(=O)(=O)c2ccc(OC(F)(F)F)cc2)cc1` [Example 706, 1-[(R)-3-[4-(1,1-difluoro-propyl)-benzylcarbamoyl]-4-(4-trifluoromethoxy-benzenesulfonyl)-piperazine-1-carbonyl]-piperidine-4-carboxylic acid]: the IC50 in test [1] (setting [5]) and in test [2] (setting [6]) was greater than 1000 nM each time.
Turning to `CCCc1ccc(CNC(=O)[C@H]2CN(c3nc4c(C(=O)O)cncc4s3)CCN2S(=O)(=O)c2ccc(CC)cc2)cc1` [Example 1065, 2-[(R)-4-(4-ethyl-benzenesulfonyl)-3-(4-propyl-benzylcarbamoyl)-piperazin-1-yl]-thiazolo[5,4-c]pyridine-7-carboxylic acid], the IC50 in test [1] (setting [5]) and in test [2] (setting [6]) was less than 100 nM in each case.
In the case of `CCCc1ccc(CNC(=O)[C@H]2CN(c3nc4c(C(=O)O)nncc4s3)CCN2S(=O)(=O)c2ccc(CC)cc2)cc1` [Example 892, 2-[(R)-4-(4-ethyl-benzenesulfonyl)-3-(4-propyl-benzylcarbamoyl)-piperazin-1-yl]-thiazolo[4,5-d]pyridazine-4-carboxylic acid], the IC50 in test [1] (setting [5]) and in test [2] (setting [6]) was less than 100 nM each time.
Take `CC(C)c1ccc(CNC(=O)[C@H]2CN(c3cnc(C(N)=O)cn3)CCN2S(=O)(=O)c2ccc(C(F)(F)F)cc2)cc1` [Example 377, (R)-4-(4-trifluoromethyl-benzenesulfonyl)-3,4,5,6-tetrahydro-2H-[1,2′]bipyrazinyl-3,5′-dicarboxylic acid 5′-amide 3-(4-isopropyl-benzylamide)]: the IC50 in test [1] (setting [3]) and in test [2] (setting [4]) was less than 100 nM in each case.
With `CCC(F)(F)c1ccc(CNC(=O)[C@H]2CN(C(=O)Cn3nnc(CC(=O)N4CCOCC4)n3)CCN2S(=O)(=O)c2ccc(OC(F)(F)F)cc2)cc1` [Example 543, (R)-4-{2-[5-(2-morpholin-4-yl-2-oxo-ethyl)-tetrazol-2-yl]-acetyl}-1-(4-trifluoromethoxy-benzenesulfonyl)-piperazine-2-carboxylic acid 4-(1,1-difluoro-propyl)-benzylamide], the IC50 in test [1] (setting [3]) and in test [2] (setting [4]) was less than 100 nM throughout.

These data come from patent US8017612B2, “Piperazine compound and use thereof as a HCV polymerase inhibitor” (priority 2006, dated 2011).
